In patent publication US7423026B2, “Methylated cyclodextrin complexes” (PediPharm Oy, priority 2002, dated 2008):

Key:
[1] = Aqueous phase-solubility study of cannabinoids with HP-β-CD; format: physicochemical; conditions: calculated from Ap-type phase-solubility diagram
Text: (§1) AU the phase-solubility diagrams (cannabinoid concentration as a function of CD concentration) are Ap-type (Higuchi and Connors 1965) and calculated complexation constants for 1:1 and 1:2 inclusion complexes has been shown in Table 1.

[2] = Dissolution studies of CBD formulations in 2% RM-β-CD dissolution media (pH 6.6); format: physicochemical; conditions: gelatine capsule, 1.0 mg pure CBD and 99 mg lactose, without RM-β-CD, 2% RM-β-CD media
[3] = Aqueous phase-solubility study of cannabinoids with RM-β-CD; format: physicochemical; conditions: for complexation constant for 1:1 inclusion complex, K1:1 / complexation constant for 1:2 inclusion complex, K1:2: with RM-β-CD, calculated from Ap-type phase-solubility diagram
Text: as §1

[4] = oral administration, depending on the drug vehicle; cited from earlier work
[5] = Aqueous solubility of THC in HP-β-CD solution (Jarho et al.); format: physicochemical; conditions: calculated from Jarho et al.
Experimental: Compared to earlier findings, methylated β-CD improves the aqueous solubility of cannabinoids more efficiently, imparting promising dissolution properties for cannabinoids. […] However, the complexation of cannabinoids with methylated β-CD is more efficient compared to HP-β-CD.
As discussed above, the bioavailability of THC is 6-20% after oral administration. THC is commercially available as a capsule containing 5-10 mg of THC (Marinol). […] Thus, it can be calculated that 2 g of HP-β-CD is needed to establish a dosage form containing 5 mg of complexed THC. This is an amount that is too much for tablet formulations. According to the invention it has now been shown that the same amount of THC can be complexed with 200 mg of RM-β-CD.

[6] = 40% solution of HP-β-CD; cited from earlier work
[7] = Dissolution studies of THC formulations in 2% RM-β-CD dissolution media (pH 6.6); format: physicochemical; conditions: gelatine capsule, 1.0 mg pure THC and 99 mg lactose, without RM-β-CD, 2% RM-β-CD media

Compound	complexation constant for 1:1 inclusion complex, K1:1 [1]	complexation constant for 1:2 inclusion complex, K1:2 [1]	time until CBD is fully dissolved [2]	complexation constant for 1:1 inclusion complex, K1:1 [3]	complexation constant for 1:2 inclusion complex, K1:2 [3]	bioavailability [4]	amount of HP-β-CD needed for a dosage form containing 5 mg of complexed THC [5]	amount of HP-β-CD needed to complex 1 mg of THC [5]	concentration of THC solution obtained [6]	time until THC is fully dissolved [7]	amount of RM-β-CD to prepare the same formulation (1 mg of THC) ([3]; 1 mg of THC)	amount of RM-β-CD that complexes 5 mg of THC ([3]; same amount of THC (5 mg))
C=C(C)[C@@H]1CCC(C)=C[C@H]1c1c(O)cc(CCCCC)cc1O [CBD, cannabidiol]	13 844 M^−1	62 M⁻¹	3 h	484 145 M^−1	8 M⁻¹							
CCCCCc1cc(O)c2c(c1)OC(C)(C)[C@@H]1CCC(C)=C[C@@H]21 [THC, Δ^9-tetrahydrocannabinol]	4 222 M^−1	58 M⁻¹		19 563 M^−1	38 M⁻¹	6-20%	2 g	400 mg	1000 µg/mL	1 h	25.7 mg	200 mg
